The values that follow come from the Kinase Knowledgebase extract (Sharma et al. 2016).

Chain of PIK3CA (human) (P42336 whole entry, looked up): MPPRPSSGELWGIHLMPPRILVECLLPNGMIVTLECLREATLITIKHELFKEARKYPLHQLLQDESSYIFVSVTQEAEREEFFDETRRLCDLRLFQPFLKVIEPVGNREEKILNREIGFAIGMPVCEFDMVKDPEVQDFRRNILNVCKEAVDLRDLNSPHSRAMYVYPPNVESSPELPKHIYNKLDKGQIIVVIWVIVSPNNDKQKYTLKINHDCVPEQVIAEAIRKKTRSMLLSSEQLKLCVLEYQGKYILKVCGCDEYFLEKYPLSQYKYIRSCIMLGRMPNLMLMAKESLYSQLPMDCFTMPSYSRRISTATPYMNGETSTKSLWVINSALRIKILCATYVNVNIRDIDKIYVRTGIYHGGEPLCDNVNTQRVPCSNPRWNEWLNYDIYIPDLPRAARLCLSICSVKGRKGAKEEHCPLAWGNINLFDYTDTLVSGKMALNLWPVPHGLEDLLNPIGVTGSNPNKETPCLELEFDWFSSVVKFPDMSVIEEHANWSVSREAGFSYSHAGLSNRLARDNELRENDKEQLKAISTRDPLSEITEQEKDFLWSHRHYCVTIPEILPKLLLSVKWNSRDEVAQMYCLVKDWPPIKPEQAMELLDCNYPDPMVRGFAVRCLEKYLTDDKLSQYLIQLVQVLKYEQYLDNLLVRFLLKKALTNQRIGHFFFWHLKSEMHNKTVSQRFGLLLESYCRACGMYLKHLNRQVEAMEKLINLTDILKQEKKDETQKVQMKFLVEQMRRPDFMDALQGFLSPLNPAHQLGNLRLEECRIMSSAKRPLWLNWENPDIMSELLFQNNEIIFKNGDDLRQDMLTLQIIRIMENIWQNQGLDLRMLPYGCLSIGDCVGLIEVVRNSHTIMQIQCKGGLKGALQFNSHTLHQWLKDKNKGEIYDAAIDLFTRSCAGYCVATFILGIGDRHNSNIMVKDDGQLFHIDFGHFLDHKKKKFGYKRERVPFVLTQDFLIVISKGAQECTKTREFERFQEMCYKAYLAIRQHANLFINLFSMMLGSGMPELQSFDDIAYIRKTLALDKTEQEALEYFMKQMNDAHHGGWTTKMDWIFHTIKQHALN

The experiment addresses PIK3CA (human) (UniProt P42336). In words: Assessment of PIK3CA Kinase Activity.
Broadly, the IC50 is the concentration at which inhibition is half-maximal. Low values mean inhibition by little substance, high ones a need for much substance. For `CN(C)C(=O)c1ccc(NC(=O)Nc2ccc(-c3nc(N4CCOCC4)c4ccc(C(C)(C)O)cc4n3)cc2F)cc1`, the IC50 lay within 50 to 200 nM.

Consider `Cc1ccncc1-c1ccc2c(N3CCOCC3)nc(-c3ccc(NC(=O)Nc4ccc(C(=O)N(C)C)cc4)c(F)c3)nc2c1`, for which the IC50 was < 50 nM.

In the case of `CN(C)C(=O)c1ccc(NC(=O)Nc2ccc(-c3nc(N4CCOCC4)c4ccc(-c5cncnc5)cc4n3)cn2)c(F)c1`, the IC50 is < 50 nM.

As to `CN(C)C(=O)c1ccc(NC(=O)Nc2ccc(-c3nc(N4CCOCC4)c4ncc(-c5cnc(N)nc5)cc4n3)cc2F)cc1`, the IC50 was < 50 nM.

In the case of `CN(C)C(=O)c1ccc(NC(=O)Nc2ccc(-c3nc(N4CCOCC4)c4ccc(-c5cccnc5F)cc4n3)c(F)c2)cc1`, the IC50 was < 50 nM.

Take `CN(C)C(=O)c1ccc(NC(=O)Nc2ccc(-c3nc(N4CCOCC4)c4ccc(-c5ccco5)cc4n3)c(F)c2)cc1`: the IC50 is 50 to 200 nM.

For the compound `COc1ccc2c(N3CCOCC3)nc(-c3ccc(NC(=O)Nc4ccc(C(=O)N(C)C)cc4)cc3)nc2c1`, the 50% inhibitory concentration (IC50) was < 50 nM.

In the case of `Cc1ccc(-c2ccc3c(N4CCOCC4)nc(-c4ccc(NC(=O)Nc5ccc(C(=O)N(C)C)cc5)cc4)nc3c2)cn1`, the IC50 was < 50 nM.

Regarding `CN(C)C(=O)c1ccc(NC(=O)Nc2ccc(-c3nc(N4CCOCC4)c4ccc(-c5ccc(CO)o5)cc4n3)cc2)cc1`, the IC50 was < 50 nM.

In turn, `COc1ccc(-c2ccc3c(N4CCOCC4)nc(-c4ccc(NC(=O)Nc5ccc(C(=O)N(C)C)cc5)c(F)c4)nc3c2)cn1` yielded an IC50 of 50 to 200 nM.

With `CN(C)C(=O)c1ccc(NC(=O)Nc2ccc(-c3nc(N4CCOCC4)c4ccc(-c5cccc(CO)c5)cc4n3)cc2)cc1`, the IC50 is < 50 nM.

`CNC(=O)c1ccc(NC(=O)Nc2ccc(-c3nc(N4CCOCC4)c4ccc(-c5cncnc5)cc4n3)cc2)cc1`: the IC50 is 50 to 200 nM.

For `COc1ncc(-c2ccc3c(N4CCOCC4)nc(-c4ccc(NC(=O)Nc5ccc(C(=O)N(C)C)cc5)nc4)nc3c2)cn1`, the IC50 was < 50 nM.

Consider `CN(C)C(=O)c1ccc(NC(=O)Nc2ccc(-c3nc(N4CCOCC4)c4ccccc4n3)cc2)cc1`, for which the IC50 lay in the range of 50 to 200 nM.

As for `CN(C)C(=O)c1ccc(NC(=O)Nc2ccc(-c3nc(N4CCOCC4)c4ccc(-c5cccs5)cc4n3)cc2)cc1`, the IC50 was < 50 nM.

`CC(O)c1ccc(-c2ccc3c(N4CCOCC4)nc(-c4ccc(NC(=O)Nc5ccc(C(=O)N(C)C)cc5)c(F)c4)nc3c2)o1` (stereo unspecified): the IC50 was < 50 nM.

Regarding `CN1CCN(C(=O)c2ccc(NC(=O)Nc3ccc(-c4nc(N5CCOCC5)c5ccc(-c6cccc(S(C)(=O)=O)c6)cc5n4)cc3)cc2)CC1`, the IC50 is < 50 nM.

`CN(C)C(=O)c1ccc(NC(=O)Nc2ccc(-c3nc(N4CCOCC4)c4ccc(-c5ccc(CO)o5)cc4n3)cc2)cc1F`: the IC50 is < 50 nM.

As to `CN(C)C(=O)c1ccc(NC(=O)Nc2ccc(-c3nc(N4CCOCC4)c4ncc(-c5cccc(S(C)(=O)=O)c5)cc4n3)cc2)cc1`, the IC50 is < 50 nM.

Compound `CN(C)C(=O)c1ccc(NC(=O)Nc2ccc(-c3nc(N4CCOCC4)c4cc(F)c(-c5cccnc5)cc4n3)cc2F)cc1` returned an IC50 of 50 to 200 nM.

Take `CN(C)C(=O)c1ccc(NC(=O)Nc2ccc(-c3nc(N4CCOCC4)c4ccc(-c5cccnc5)cc4n3)c(F)c2)cc1`: the IC50 is < 50 nM.

Take `CN(C)C(=O)c1ccc(NC(=O)Nc2ccc(-c3nc(N4CCOCC4)c4ccc(-c5cccc(S(C)(=O)=O)c5)cc4n3)cc2F)cc1`: the IC50 is < 50 nM.

Consider `CN(C)C(=O)c1ccc(NC(=O)Nc2ccc(-c3nc(N4CCOCC4)c4ccc(-c5ccco5)cc4n3)cc2)cc1F`, for which the IC50 lay in the range of 50 to 200 nM.

In the case of `CN(C)C(=O)c1ccc(NC(=O)Nc2ccc(-c3nc(N4CCOCC4)c4ccc(-c5cccc(S(C)(=O)=O)c5)cc4n3)c(F)c2)cc1`, the IC50 was < 50 nM.

Regarding `CN(C)CCN(C)C(=O)c1ccc(NC(=O)Nc2ccc(-c3nc(N4CCOCC4)c4ccc(-c5cncnc5)cc4n3)cc2)cc1`, the IC50 was < 50 nM.

For `CN(C)C(=O)c1ccc(NC(=O)Nc2ccc(-c3nc(N4CCOCC4)c4ncc(-c5cccnc5F)cc4n3)cc2)cc1F`, the IC50 is < 50 nM.

With `CN1CCN(C(=O)c2ccc(NC(=O)Nc3ccc(-c4nc(N5CCOCC5)c5ccc(-c6ccco6)cc5n4)cc3)cc2)CC1`, the IC50 is < 50 nM.

Take `COc1cccc(-c2ccc3c(N4CCOCC4)nc(-c4ccc(NC(=O)Nc5ccc(C(=O)N(C)C)cc5)cc4)nc3c2)n1`: the 50% inhibitory concentration (IC50) lay within 50 to 200 nM.

Turning to `Cc1noc(C)c1-c1ccc2c(N3CCOCC3)nc(-c3ccc(NC(=O)Nc4ccc(C(=O)N5CC[C@H](N(C)C)C5)cc4)c(F)c3)nc2c1`, the IC50 fell in the range of 50 to 200 nM.

For the compound `CN(C)C(=O)c1ccc(NC(=O)Nc2ccc(-c3nc(N4CCOCC4)c4ccc(-c5cccc(O)c5)cc4n3)cc2)cc1`, the IC50 is < 50 nM.

Regarding `CN(C)[C@H]1CCN(C(=O)c2ccc(NC(=O)Nc3ccc(-c4nc(N5CCOCC5)c5cc(F)c(-c6cccnc6)cc5n4)cc3)cc2)C1`, the IC50 was < 50 nM.

The compound `Cc1noc(C)c1-c1ccc2c(N3CCOCC3)nc(-c3ccc(NC(=O)Nc4ccc(C(=O)N(C)C)cc4)cc3F)nc2c1` returned an IC50 of 50 to 200 nM.

Regarding `CN1CCN(C(=O)c2ccc(NC(=O)Nc3ccc(-c4nc(N5CCOCC5)c5ccc(-c6ccncc6)cc5n4)cc3F)cc2)CC1`, the IC50 fell in the range of 50 to 200 nM.

As for `CN1CCN(C(=O)c2ccc(NC(=O)Nc3ccc(-c4nc(N5CCOCC5)c5ccc(-c6cccnc6)cc5n4)cc3)cc2)CC1`, the IC50 was < 50 nM.

On to `CN(C)C(=O)c1ccc(NC(=O)Nc2ccc(-c3nc(N4CCOCC4)c4cc(F)c(-c5cncc(S(C)(=O)=O)c5)cc4n3)cc2)cc1`, for which the IC50 is < 50 nM.

`CN(C)[C@@H]1CCN(C(=O)c2ccc(NC(=O)Nc3ccc(-c4nc(N5CCOCC5)c5ncc(-c6cnn(C)c6)cc5n4)cc3F)cc2)C1`: the concentration for half-maximal inhibition (IC50) was < 50 nM.

Take `CN(C)C(=O)c1ccc(NC(=O)Nc2ccc(-c3nc(N4CCOCC4)c4ccc(-c5cncc(S(C)(=O)=O)c5)cc4n3)cc2)cc1`: the concentration for half-maximal inhibition (IC50) is < 50 nM.

`CN(C)[C@H]1CCN(C(=O)c2ccc(NC(=O)Nc3ccc(-c4nc(N5CCOCC5)c5ncc(-c6cnn(C)c6)cc5n4)cc3F)cc2)C1`: the IC50 is < 50 nM.

Regarding `Cc1ncccc1-c1ccc2c(N3CCOCC3)nc(-c3ccc(NC(=O)Nc4ccc(C(=O)N(C)C)cc4)cc3F)nc2c1`, the half-maximal inhibitory concentration (IC50) is < 50 nM.

Take `CN(C)C(=O)c1ccc(NC(=O)Nc2ccc(-c3nc(N4CCOCC4)c4ncc(-c5cnn(C)c5)cc4n3)cc2)c(F)c1`: the IC50 is < 50 nM.

Turning to `CN(C)C(=O)c1ccc(NC(=O)Nc2ccc(-c3nc(N4CCOCC4)c4ncc(-c5cncnc5)cc4n3)cc2)c(F)c1`, the IC50 was < 50 nM.

On to `CC(=O)Nc1ccc(NC(=O)Nc2ccc(-c3nc(N4CCOCC4)c4ncc(-c5cccnc5F)cc4n3)cc2)cc1`, for which the IC50 was < 50 nM.

Turning to `CN(C)[C@@H]1CCN(C(=O)c2ccc(NC(=O)Nc3ccc(-c4nc(N5CCOCC5)c5cc(F)c(-c6cccnc6)cc5n4)cc3)cc2)C1`, the IC50 is < 50 nM.

Regarding `Cc1ncccc1-c1ccc2c(N3CCOCC3)nc(-c3ccc(NC(=O)Nc4ccc(C(=O)N(C)C)cc4F)cc3)nc2c1`, the IC50 is < 50 nM.

As for `CN(C)C(=O)c1ccc(NC(=O)Nc2ccc(-c3nc(N4CCOCC4)c4ncc(-c5cccnc5)cc4n3)cc2)c(F)c1`, the IC50 was < 50 nM.

`Cc1ccc(-c2ccc3c(N4CCOCC4)nc(-c4ccc(NC(=O)Nc5ccc(C(=O)N6CCC(O)C6)cc5)cc4)nc3c2)o1` (stereo unspecified): the IC50 was < 50 nM.

As for `CN(C)C(=O)c1ccc(NC(=O)Nc2ccc(-c3nc(N4CCOCC4)c4ccc(-c5cncnc5)cc4n3)cc2F)cn1`, the IC50 lay within 50 to 200 nM.

The compound `Cc1ccc(-c2cc3nc(-c4ccc(NC(=O)Nc5ccc(C(=O)N(C)C)cc5)cc4)nc(N4CCOCC4)c3cc2F)o1` registered an IC50 of 50 to 200 nM.

Compound `CN(C)C(=O)c1ccc(NC(=O)Nc2ccc(-c3nc(N4CCOCC4)c4cccc(-c5cccnc5F)c4n3)cc2)cc1` showed an IC50 of 50 to 200 nM.

As to `CN1CCN(C(=O)c2ccc(NC(=O)Nc3ccc(-c4nc(N5CCOCC5)c5cc(F)c(-c6cccnc6)cc5n4)cc3)cc2)CC1`, the 50% inhibitory concentration (IC50) is < 50 nM.

`CN(C)C(=O)c1ccc(NC(=O)Nc2ccc(-c3nc(N4CCOCC4)c4ccc(-c5cncnc5)cc4n3)cc2F)cc1` displayed an IC50 of 50 to 200 nM.

The compound `CN(C)C(=O)c1ccc(NC(=O)Nc2ccc(-c3nc(N4CCOCC4)c4cccc(-c5cccc(O)c5)c4n3)cc2)cc1` returned an IC50 of 50 to 200 nM.

For the compound `CN(C)C(=O)c1ccc(NC(=O)Nc2ccc(-c3nc(N4CCOCC4)c4ccc(-c5cccnc5F)cc4n3)cc2F)cc1`, the IC50 is < 50 nM.

The compound `CS(=O)(=O)c1cccc(-c2ccc3c(N4CCOCC4)nc(-c4ccc(NC(=O)Nc5ccc(C(N)=O)cc5)cc4)nc3c2)c1` showed an IC50 of 50 to 200 nM.

Regarding `Cc1noc(C)c1-c1cc2nc(-c3ccc(NC(=O)Nc4ccc(C(=O)N(C)C)cc4)cc3)nc(N3CCOCC3)c2cc1F`, the IC50 was in the range of 50 to 200 nM.

Take `Cc1noc(C)c1-c1cnc2c(N3CCOCC3)nc(-c3ccc(NC(=O)Nc4ccc(C(=O)N(C)C)cc4)cc3)nc2c1`: the IC50 is < 50 nM.

On to `CN(C)C(=O)c1ccc(NC(=O)Nc2ccc(-c3nc(N4CCOCC4)c4ncc(-c5cccnc5)cc4n3)cc2)cc1`, for which the IC50 is < 50 nM.

Take `CN(C)C(=O)c1ccc(NC(=O)Nc2ccc(-c3nc(N4CCOCC4)c4cc(F)c(-c5cncnc5)cc4n3)cc2)cc1`: the IC50 was < 50 nM.

The compound `CN(C)CCNC(=O)c1ccc(NC(=O)Nc2ccc(-c3nc(N4CCOCC4)c4ccc(-c5cncnc5)cc4n3)cc2)cc1` returned an IC50 of 50 to 200 nM.

`CN(C)[C@@H]1CCN(C(=O)c2ccc(NC(=O)Nc3ccc(-c4nc(N5CCOCC5)c5ccc(C(C)(C)O)cc5n4)cc3)cc2)C1` yielded an IC50 of 50 to 200 nM.

Turning to `CN(C)C(=O)c1ccc(NC(=O)Nc2ccc(-c3nc(N4CCOCC4)c4ccc(-c5cccnc5)cc4n3)cc2)cc1F`, the IC50 was < 50 nM.

Consider `CC(O)c1ccc(-c2cnc3c(N4CCOCC4)nc(-c4ccc(NC(=O)Nc5ccc(C(=O)N(C)C)cc5)c(F)c4)nc3c2)o1` (stereo unspecified), for which the IC50 was < 50 nM.

`Cc1ccc(-c2ccc3c(N4CCOCC4)nc(-c4ccc(NC(=O)Nc5ccc(C(=O)N(C)C)nc5)c(F)c4)nc3c2)o1`: the IC50 fell in the range of 50 to 200 nM.

Regarding `Cc1ccncc1-c1cnc2c(N3CCOCC3)nc(-c3ccc(NC(=O)Nc4ccc(C(=O)N(C)C)cc4)cc3)nc2c1`, the IC50 is < 50 nM.

On to `CN(C)C(=O)c1ccc(NC(=O)Nc2ccc(-c3nc(N4CCOCC4)c4ccc(-c5cnn(C)c5)cc4n3)cn2)cc1`, for which the IC50 was < 50 nM.

As to `Cc1ccc(-c2ccc3c(N4CCOCC4)nc(-c4ccc(NC(=O)Nc5ccc(C(=O)N(C)C)cc5F)cc4)nc3c2)cn1`, the IC50 is < 50 nM.
